In patent publication US20100311714A1, “1H-IMIDAZO[4,5-c]QUINOLINONE COMPOUNDS” (priority 2009, published 2010):
Where two headings read alike, the source gives them in different places.

Experiments:
PI3K beta = target: T1, PI3K beta (Homo sapiens, UniProt P42338); assay: PI3K beta kinase assay (Kinase-Glo luminescence); format: biochemical
T1 construct: for the full-length p110-b subunit are generated and fused by overlapping PCR; His tag (C); made in house; host or cells: baculovirus BV949; Tn5 (Trichoplusia ni) or TiniPro insect cells
T1 sequence (P42338 with tags, fused parts or gaps limits assumed): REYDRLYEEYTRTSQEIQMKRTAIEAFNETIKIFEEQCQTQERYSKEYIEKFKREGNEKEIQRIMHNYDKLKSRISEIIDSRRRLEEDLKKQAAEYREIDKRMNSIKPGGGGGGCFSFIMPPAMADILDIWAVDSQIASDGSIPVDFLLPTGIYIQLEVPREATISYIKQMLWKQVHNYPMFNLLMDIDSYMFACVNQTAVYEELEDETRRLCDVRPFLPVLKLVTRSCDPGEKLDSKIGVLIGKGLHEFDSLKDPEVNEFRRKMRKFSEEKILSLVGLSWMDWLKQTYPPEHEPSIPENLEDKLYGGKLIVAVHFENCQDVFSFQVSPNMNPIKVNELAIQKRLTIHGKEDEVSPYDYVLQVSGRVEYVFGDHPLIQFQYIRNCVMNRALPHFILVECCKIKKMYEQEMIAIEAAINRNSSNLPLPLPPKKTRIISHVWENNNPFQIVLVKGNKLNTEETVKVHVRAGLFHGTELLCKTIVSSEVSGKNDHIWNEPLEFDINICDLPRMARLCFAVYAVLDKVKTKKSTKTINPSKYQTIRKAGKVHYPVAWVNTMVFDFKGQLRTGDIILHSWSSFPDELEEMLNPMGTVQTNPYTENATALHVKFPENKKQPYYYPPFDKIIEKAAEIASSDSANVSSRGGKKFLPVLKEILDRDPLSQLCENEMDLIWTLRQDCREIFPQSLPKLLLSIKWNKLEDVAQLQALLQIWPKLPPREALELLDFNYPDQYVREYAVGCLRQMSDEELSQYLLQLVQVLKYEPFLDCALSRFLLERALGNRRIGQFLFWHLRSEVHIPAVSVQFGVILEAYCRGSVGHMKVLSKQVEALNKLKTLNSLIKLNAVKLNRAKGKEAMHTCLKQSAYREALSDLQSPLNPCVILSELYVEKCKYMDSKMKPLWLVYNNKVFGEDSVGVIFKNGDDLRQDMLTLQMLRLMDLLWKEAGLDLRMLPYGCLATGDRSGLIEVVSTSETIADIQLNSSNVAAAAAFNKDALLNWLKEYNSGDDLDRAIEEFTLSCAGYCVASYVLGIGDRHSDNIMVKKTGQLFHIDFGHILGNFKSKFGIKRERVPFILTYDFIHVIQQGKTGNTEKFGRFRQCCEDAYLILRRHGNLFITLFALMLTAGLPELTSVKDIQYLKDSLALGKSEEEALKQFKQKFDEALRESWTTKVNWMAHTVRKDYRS
Procedure, shortened: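 PI3Kβ construct BV949 (p85 iSH2–p110β full-length, C-His), 25 nM, reacted with 1 μM ATP and 10 μg/mL phosphatidylinositol in Tris pH 7.5, MgCl2, NaCl, CHAPS, DTT buffer, 60 min at room temperature. Remaining ATP by Kinase-Glo luminescence; IC50 from 4-parameter logistic fit of 8 concentrations.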

PI3K delta = target: T2, PI3K delta (Homo sapiens, UniProt O00329); assay: PI3K delta kinase assay (Kinase-Glo luminescence); format: biochemical
T2 construct: for the full-length p110-d subunit are generated and fused by overlapping PCR; His tag (C); made in house; host or cells: baculovirus BV1060; Tn5 (Trichoplusia ni) or TiniPro insect cells
T2 sequence (O00329 with tags, fused parts or gaps limits assumed): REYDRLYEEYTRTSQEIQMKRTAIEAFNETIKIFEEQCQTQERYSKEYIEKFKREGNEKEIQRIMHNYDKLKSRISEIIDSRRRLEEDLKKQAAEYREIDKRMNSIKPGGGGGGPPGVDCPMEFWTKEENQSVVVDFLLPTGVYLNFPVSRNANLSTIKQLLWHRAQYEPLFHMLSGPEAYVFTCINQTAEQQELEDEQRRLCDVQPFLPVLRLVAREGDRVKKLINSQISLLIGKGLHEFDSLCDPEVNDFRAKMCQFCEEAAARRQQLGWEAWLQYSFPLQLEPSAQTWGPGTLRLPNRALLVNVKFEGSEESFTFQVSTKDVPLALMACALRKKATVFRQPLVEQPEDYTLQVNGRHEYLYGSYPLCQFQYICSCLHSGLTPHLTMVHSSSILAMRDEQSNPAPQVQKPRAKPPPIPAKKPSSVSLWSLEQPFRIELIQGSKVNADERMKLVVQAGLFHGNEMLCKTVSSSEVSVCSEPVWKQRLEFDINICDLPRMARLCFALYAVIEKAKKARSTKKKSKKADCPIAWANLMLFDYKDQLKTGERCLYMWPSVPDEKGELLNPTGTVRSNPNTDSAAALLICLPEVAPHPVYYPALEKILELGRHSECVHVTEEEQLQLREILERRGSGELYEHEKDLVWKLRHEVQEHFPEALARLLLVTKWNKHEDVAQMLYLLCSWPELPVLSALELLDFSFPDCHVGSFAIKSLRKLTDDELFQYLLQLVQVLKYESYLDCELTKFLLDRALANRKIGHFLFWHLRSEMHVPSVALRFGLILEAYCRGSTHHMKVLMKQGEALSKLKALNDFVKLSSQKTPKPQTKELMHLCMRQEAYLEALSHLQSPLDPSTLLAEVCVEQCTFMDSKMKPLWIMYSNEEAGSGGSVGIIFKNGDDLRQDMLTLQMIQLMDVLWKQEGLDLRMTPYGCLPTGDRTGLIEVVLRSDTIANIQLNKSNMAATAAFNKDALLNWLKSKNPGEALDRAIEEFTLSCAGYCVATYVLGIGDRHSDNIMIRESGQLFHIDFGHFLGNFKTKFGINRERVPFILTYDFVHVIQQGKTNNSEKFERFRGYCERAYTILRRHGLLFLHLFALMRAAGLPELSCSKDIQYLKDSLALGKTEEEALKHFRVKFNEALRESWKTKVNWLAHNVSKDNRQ
Procedure, shortened: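 Kinase-Glo ATP-depletion luminescence using 10 nM p85(iSH2)-linker-p110δ full-length His-tag construct from insect cells, with 1 μM ATP and 10 μg/mL phosphatidylinositol in 10 mM Tris pH 7.5, 3 mM MgCl2, 50 mM NaCl, 0.05% CHAPS, 1 mM DTT. 60 min room temperature; IC50 from 4-parameter logistic fit over 8 concentrations.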

Structure (SMILES) | IC50 (PI3K beta; read-out: EPK_PI3Kbeta/IC50) | IC50 (PI3K delta; read-out: EPK_PI3Kdelta/IC50) | IC50 (PI3K beta; read-out: PI3Kbeta/IC50) | IC50 (PI3K delta; read-out: PI3Kdelta/IC50)
COc1ccc(-n2c(=O)n(C)c3cnc4ccc(-c5cnc(C(OC)OC)c(OC)c5)cc4c32)c(OC)n1 [Example 8.13, 8-(6-Dimethoxymethyl-5-methoxy-pyridin-3-yl)-1-(2,6-dimethoxy-pyridin-3-yl)-3-methyl-1,3-dihydro-imidazo[4,5-c]quinolin-2-one] | 265 nM | 167 nM |  | 
Cc1ncccc1-n1c(=O)n(C)c2cnc3ccc(-c4cnc5[nH]ccc5c4)cc3c21 [Example 2.8, 3-Methyl-1-(2-methyl-pyridin-3-yl)-8-(1H-pyrrolo[2,3-b]pyridin-5-yl)-1,3-dihydro-imidazo[4,5-c]quinolin-2-one] |  |  | 173 nM | 35 nM
COCc1ncc(-c2ccc3ncc4c(c3c2)n(-c2ccc(F)nc2C)c(=O)n4C)cc1OC [Example 7.7, 1-(6-Fluoro-2-methyl-pyridin-3-yl)-8-(5-methoxy-6-methoxymethyl-pyridin-3-yl)-3-methyl-1,3-dihydro-imidazo[4,5-c]quinolin-2-one] | 359 nM | 79 nM |  | 
COCc1ncc(-c2ccc3ncc4c(c3c2)n(-c2cccnc2C)c(=O)n4C)cc1OC [Example 2.30, 8-(5-Methoxy-6-methoxymethyl-pyridin-3-yl)-3-methyl-1-(2-methyl-pyridin-3-yl)-1,3-dihydro-imidazo[4,5-c]quinolin-2-one] | 395 nM | 53 nM |  | 
COc1cc(-c2ccc3ncc4c(c3c2)n(-c2ccc(F)nc2C)c(=O)n4C)cnc1CO [Example 7.10, 1-(6-Fluoro-2-methyl-pyridin-3-yl)-8-(6-hydroxymethyl-5-methoxy-pyridin-3-yl)-3-methyl-1,3-dihydro-imidazo[4,5-c]quinolin-2-one] | 20 nM | 186 nM |  | 
COc1ccc(-n2c(=O)n(C)c3cnc4ccc(-c5cnc(CO)c(OC)c5)cc4c32)c(OC)n1 [Example 8.14, 1-(2,6-Dimethoxy-pyridin-3-yl)-8-(6-hydroxymethyl-5-methoxy-pyridin-3-yl)-3-methyl-1,3-dihydro-imidazo[4,5-c]quinolin-2-one] | 1550 nM | 311 nM |  | 
Cn1c(=O)n(-c2cccnc2F)c2c3cc(-c4cnc5[nH]ccc5c4)ccc3ncc21 [Example 6.3, 1-(2-Fluoro-pyridin-3-yl)-3-methyl-8-(1H-pyrrolo[2,3-b]pyridin-5-yl)-1,3-dihydro-imidazo[4,5-c]quinolin-2-one] |  |  | 112 nM | 78 nM
Cc1nc(F)ccc1-n1c(=O)n(C)c2cnc3ccc(-c4cncc(N5CCC5)c4)cc3c21 [Example 7.6, 8-(5-Azetidin-1-yl-pyridin-3-yl)-1-(6-fluoro-2-methyl-pyridin-3-yl)-3-methyl-1,3-dihydro-imidazo[4,5-c]quinolin-2-one] | 965 nM | 148 nM |  | 
COc1ccc(-n2c(=O)n(C)c3cnc4ccc(-c5cncc(N6CCC6)c5)cc4c32)c(OC)n1 [Example 8.11, 8-(5-Azetidin-1-yl-pyridin-3-yl)-1-(2,6-dimethoxy-pyridin-3-yl)-3-methyl-1,3-dihydro-imidazo[4,5-c]quinolin-2-one] | 730 nM | 126 nM |  | 
CNC(=O)c1ccc(-c2ccc3ncc4c(c3c2)n(-c2cccnc2C)c(=O)n4C)cc1 [Example 2.4, N-Methyl-4-[3-methyl-1-(2-methyl-pyridin-3-yl)-2-oxo-2,3-dihydro-1H-imidazo[4,5-c]quinolin-8-yl]-benzamide] |  |  | 682 nM | 221 nM

Other lines, results leading:

IC50 (PI3K beta; read-out: EPK_PI3Kbeta/IC50) | IC50 (PI3K delta; read-out: EPK_PI3Kdelta/IC50) | IC50 (PI3K beta; read-out: PI3Kbeta/IC50) | IC50 (PI3K delta; read-out: PI3Kdelta/IC50) | Structure (SMILES)
36 nM | < 3 nM |  |  | Cc1nc(N2CCC(O)C2)ccc1-n1c(=O)n(C)c2cnc3ccc(-c4cnc(N)c(C(F)(F)F)c4)cc3c21 (centres unmarked) [Example 27.3, 8-(6-Amino-5-trifluoromethyl-pyridin-3-yl)-1-[6-(3-hydroxy-pyrrolidin-1-yl)-2-methyl-pyridin-3-yl]-3-methyl-1,3-dihydro-imidazo[4,5-c]quinolin-2-one]
904 nM | 193 nM |  |  | CCOc1ccc(-c2ccc3ncc4c(c3c2)n(-c2ccc(N3CCC(O)C3)nc2C)c(=O)n4C)cn1 (centres unmarked) [Example 27.4, 8-(6-Ethoxy-pyridin-3-yl)-1-[6-(3-hydroxy-pyrrolidin-1-yl)-2-methyl-pyridin-3-yl]-3-methyl-1,3-dihydro-imidazo[4,5-c]quinolin-2-one]
2270 nM | 248 nM |  |  | COc1cc(-c2ccc3ncc4c(c3c2)n(-c2ccc(N3CC(F)(F)C3)nc2C)c(=O)n4C)cnc1CO [Example 24.4, 1-[6-(3,3-Difluoro-azetidin-1-yl)-2-methyl-pyridin-3-yl]-8-(6-hydroxymethyl-5-methoxy-pyridin-3-yl)-3-methyl-1,3-dihydro-imidazo[4,5-c]quinolin-2-one]
269 nM | 272 nM |  |  | COc1cc(-c2ccc3ncc4c(c3c2)n(-c2ccc(N3CCCC3)nc2C)c(=O)n4C)cnc1CO [Example 25.4, 8-(6-Hydroxymethyl-5-methoxy-pyridin-3-yl)-3-methyl-1-(2-methyl-6-pyrrolidin-1-yl-pyridin-3-yl)-1,3-dihydro-imidazo[4,5-c]quinolin-2-one]
175 nM | 42 nM |  |  | COc1cc(-c2ccc3ncc4c(c3c2)n(-c2ccc(N3CCC(OC)C3)nc2C)c(=O)n4C)cnc1CO (centres unmarked) [Example 28.3, 8-(6-Hydroxymethyl-5-methoxy-pyridin-3-yl)-1-[6-(3-methoxy-pyrrolidin-1-yl)-2-methyl-pyridin-3-yl]-3-methyl-1,3-dihydro-imidazo[4,5-c]quinolin-2-one]
1100 nM | 42 nM |  |  | CNc1ncc(-c2ccc3ncc4c(c3c2)n(-c2ccc(N3CC[C@@H](O)C3)nc2C)c(=O)n4C)cn1 [Example 34.1, 1-[6-((R)-3-Hydroxy-pyrrolidin-1-yl)-2-methyl-pyridin-3-yl]-3-methyl-8-(2-methylamino-pyrimidin-5-yl)-1,3-dihydro-imidazo[4,5-c]quinolin-2-one]
106 nM | 5 nM |  |  | CNc1ncc(-c2ccc3ncc4c(c3c2)n(-c2ccc(N3CC[C@H](O)C3)nc2C)c(=O)n4C)cc1Cl [Example 32.4, 8-(5-Chloro-6-methylamino-pyridin-3-yl)-1-[6-((S)-3-hydroxy-pyrrolidin-1-yl)-2-methyl-pyridin-3-yl]-3-methyl-1,3-dihydro-imidazo[4,5-c]quinolin-2-one]
299 nM | 159 nM |  |  | CNc1ncc(-c2ccc3ncc4c(c3c2)n(-c2ccc(N3CCC(OC)C3)nc2C)c(=O)n4C)cn1 (centres unmarked) [Example 28.2, 1-[6-(3-Methoxy-pyrrolidin-1-yl)-2-methyl-pyridin-3-yl]-3-methyl-8-(2-methylamino-pyrimidin-5-yl)-1,3-dihydro-imidazo[4,5-c]quinolin-2-one]
426 nM | 118 nM |  |  | COc1cc(-c2ccc3ncc4c(c3c2)n(-c2ccc(N)nc2C)c(=O)n4C)cnc1CO [Example 30.1, 1-(6-Amino-2-methyl-pyridin-3-yl)-8-(6-hydroxymethyl-5-methoxy-pyridin-3-yl)-3-methyl-1,3-dihydro-imidazo[4,5-c]quinolin-2-one]
2010 nM | 287 nM |  |  | CCNc1cc(-c2ccc3ncc4c(c3c2)n(-c2ccc(N(C)CCO)nc2C)c(=O)n4C)cnc1CO [Example 26.3, 8-(5-Ethylamino-6-hydroxymethyl-pyridin-3-yl)-1-{6-[(2-hydroxy-ethyl)-methyl-amino]-2-methyl-pyridin-3-yl}-3-methyl-1,3-dihydro-imidazo[4,5-c]quinolin-2-one]
198 nM | 35 nM |  |  | COc1cc(-c2ccc3ncc4c(c3c2)n(-c2ccc(N3CC[C@H](O)C3)nc2C)c(=O)n4C)cnc1CO [Example 32.7, 8-(6-Hydroxymethyl-5-methoxy-pyridin-3-yl)-1-[6-((S)-3-hydroxy-pyrrolidin-1-yl)-2-methyl-pyridin-3-yl]-3-methyl-1,3-dihydro-imidazo[4,5-c]quinolin-2-one]
17 nM | 148 nM |  |  | Cc1nc(N2CCC(O)C2)ccc1-n1c(=O)n(C)c2cnc3ccc(-c4cncc(C(C)(C)O)c4)cc3c21 (centres unmarked) [Example 27.5, 8-[5-(1-Hydroxy-1-methyl-ethyl)-pyridin-3-yl]-1-[6-(3-hydroxy-pyrrolidin-1-yl)-2-methyl-pyridin-3-yl]-3-methyl-1,3-dihydro-imidazo[4,5-c]quinolin-2-one]
60 nM | 19 nM |  |  | Cc1nc(N2CC(O)C2)ccc1-n1c(=O)n(C)c2cnc3ccc(-c4cncc(C(C)(C)O)c4)cc3c21 [Example 29.1, 1-[6-(3-Hydroxy-azetidin-1-yl)-2-methyl-pyridin-3-yl]-8-[5-(1-hydroxy-1-methyl-ethyl)-pyridin-3-yl]-3-methyl-1,3-dihydro-imidazo[4,5-c]quinolin-2-one]
12 nM | 33 nM |  |  | CCNc1cc(-c2ccc3ncc4c(c3c2)n(-c2ccc(N3CCCC3)nc2C)c(=O)n4C)cnc1CO [Example 25.5, 8-(5-Ethylamino-6-hydroxymethyl-pyridin-3-yl)-3-methyl-1-(2-methyl-6-pyrrolidin-1-yl-pyridin-3-yl)-1,3-dihydro-imidazo[4,5-c]quinolin-2-one]
78.5 nM | 10 nM |  |  | CCNc1cc(-c2ccc3ncc4c(c3c2)n(-c2ccc(N3CC(F)(F)C(F)(F)C3)nc2C)c(=O)n4C)cnc1CO [Example 35.2, 8-(5-Ethylamino-6-hydroxymethyl-pyridin-3-yl)-3-methyl-1-[2-methyl-6-(3,3,4,4-tetrafluoro-pyrrolidin-1-yl)-pyridin-3-yl]-1,3-dihydro-imidazo[4,5-c]quinolin-2-one]
